Tests used:
[1] = plasma; no reference given; read-out: C max (maximum plasma concentration of the drug); cited from earlier work
[2] = system: hiPSC derived hepatocytes (hiPS-HEP);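 note: hiPS-HEP obtained from ChiPSC4 through definitive endoderm under serum- and feeder-free conditions in 96-well plates, fluorescence imaging, each concentration run in triplicate wells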
Source text: (§1) For hepatic differentiation, a serum- and feeder-free procedure recapitulating liver development was applied. First, ChiPSC4 was guided to differentiate into definitive endoderm using the Cellartis DE Diff Kit (Takara Bio Europe AB; Y30030), containing complete media and coating solution for differentiation of hPSC to DE cells in 2D culture. On day 7 of differentiation, the DE cells were enzymatically dissociated and reseeded into fibronectin coated 96-well plates. […] Wells of 96-well plates were coated by adding fibronectin solution 0.15 mL per cm^2 to the wells and let to incubate for >60 min at RT. […] Next, the cell suspension was centrifuged for 5 min at 300 g at RT, the supernatant was removed, and the cell pellet was resuspended in warm Hepatocyte Thawing and Seeding medium (Cellartis Hepatocyte Diff Kit; Takara Bio Europe AB; Y30050). Prior to seeding of cells, excess coating was removed and 150 K DE cells/cm^2 were seeded in the 96-well plates. On days 9 and 11 (counted from the start of ChiPSC4 differentiation), medium was changed using Hepatocyte Progenitor Medium (Cellartis Hepatocyte Diff Kit).
(§2) The cells were treated for 48 h with compounds at varying concentrations (half log dilution from the top concentration). […] The stock solutions were prepared in DMSO or water and were diluted in culture medium to obtain the final concentration. Each concentration was assayed in triplicate wells. Vehicle control wells were included and the final DMSO concentration in the medium never exceeded 0.5% (v/v). Each batch had two plates each for fixed and live assays.
(§3) LipidTOX Green neutral lipids and LipidTox Red phospholipidosis were used for identifying neutral lipid and phospholipid formation within the cells. MMP changes (Δψm) within the cell were measured using MitoTracker orange. Carboxy-H2DCFDA (6-carboxy-2′,7′-dichlorodihydrofluorescein diacetate) an acetylated fluorescent was used for measuring ROS. And finally, TOTO-3 was used for assessing PMP.
(§4) The fluorescence probes were grouped into two sets according to their optical compatibility and requirement of fixed or live material. […] The fluorescent probes for neutral lipids and phospholipids required the cells to be fixed and were assigned to the fixed assay. The probes MitoTracker orange, carboxy-H2DCFDA, and TOTO-3 were assigned to the live assay.
(§5) Following compound incubation, probes were administered to the cultures of the live assay. […] After incubation for 45 min at optimal cell culture conditions, the cells were changed to phenol red (PR) free medium for live cell imaging. For fixed assay, LipidTox Red probe was added with the compounds, and after 48 h the cells were fixed in 4% PFA supplemented with 1X Hoechst stain for 30 min at room temperature. Subsequently, cells were washed with PBS^+/+ and 1X LipidTOX Green stain diluted in PBS^+/+ was incubated with the cells for 30 min at room temperature. The plates were imaged without removing the buffer with probe.
(§6) The cells were imaged using an Olympus ScanR system. Prior to image acquisition, the heating system and CO2 gas flow were started to ensure optimal conditions in the ScanR chamber for live cell analysis. The incubator was set to 37°C with 5% CO2 and relative humidity of 90%. […] 20X long distance objective with NA 0.45 was used to image distinct fluorescence channels. In order to cover the entire well and also to capture maximum cell events sixteen fields per well (4 × 4 tile grid spread equally) were imaged. The channel exposure time for LipidTOX Green, LipidTOX Red, MitoTracker orange, and carboxy-H2DCFHDA were set based on the fluorescence of the negative control wells and were set constant within each plate. Exposure time for Hoechst and TOTO-3 was set in the range of 1–10 ms depending on cellular fluorescence intensity.
(§7) The acquired images were analyzed using ScanR analysis program from Olympus.

[3] = system: hiPSC derived hepatocytes (hiPS-HEP); test: Image based high content analysis (HCA), fixed and live assays, in hiPSC derived hepatocytes;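 note: hiPS-HEP obtained from ChiPSC4 through definitive endoderm under serum- and feeder-free conditions in 96-well plates, fluorescence imaging, each concentration run in triplicate wells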
Source text: as §1, §2, §3, §4, §5, §6, §7

HepG2 cells = test: Image based high content analysis (HCA), fixed and live assays, in HepG2
Procedure: Briefly, the cells were grown in DMEM supplemented with 10% heat inactivated FBS, 1% penicillin-streptomycin (PEST), 1% sodium pyruvate, and 1% nonessential amino acids. Cells were passaged at 1 : 8 or 1 : 6 every 3-4 days when they reach 75–80% confluence. Seeding density was optimized for HCA application to ensure that the cells were in a monolayer (5000 cells per well in 96-well plates) for precise imaging. The cells were grown for 48 h to attach and stabilize. The experiments performed with HepG2 cells were designed to ensure that each assay was performed with cells in a similar growth phase.
Each concentration was assayed in triplicate wells. […] The experimental process is illustrated in Figure 2.
And finally, TOTO-3 was used for assessing PMP.
The cells were imaged using an Olympus ScanR system.
All other fluorescence signals were considered as subobjects.

[4] = HepG2, fixed, at 100 µM (Amiodarone HCL at […])

## C[C@H]1c2cccc(O)c2C(=O)C2=C(O)[C@]3(O)C(=O)C(C(N)=O)=C(O)[C@@H](N(C)C)[C@@H]3[C@@H](O)[C@@H]21 [Doxycycline, doxycycline]
[1]
  Cmax: 8.8 µM
[2]
  Effect on mitochondrial membrane: concentration dependent depolarization of the mitochondrial membrane
  Phospholipid parameters / accumulation of phospholipids: no changes were detected
  ROS levels: unaffected
[2]; human, 48 h
  Concentration at which increase in lipid accumulation / lipid droplets was observed: 320 µM
  MEC, MMP mean intensity: 1000 µM
  MEC, PMP mean intensity: 31.6 µM
  MEC, nuclear changes mean intensity (NC, MI): 100 µM
  MEC, steatosis droplet count (S, C): 316 µM
  MEC, steatosis mean intensity (S, MI): 1000 µM
  MEC, viability cell count (V, CC): 1000 µM
  Minimal effective concentration (MEC), viability cell count (V, CC): 100 µM
  SRI (steatotic risk index) Lipid: 36
  SRI (steatotic risk index) ROS: >114
  TR (toxicity risk): 3.6
[3]; hiPS-HEP, fixed assay, 48 h
  IC50/EC50 Nucleus Area: 96.1 µM
  IC50/EC50 Nucleus Cell count: 107 µM
  IC50/EC50 Nucleus MI: 47.2 µM
  IC50/EC50 Steatosis Count: 115 µM
  IC50/EC50 Steatosis MI: 441 µM
[3]; hiPS-HEP, live assay, 48 h
  IC50/EC50 MMP MI: 644 µM
  IC50/EC50 Nucleus Area: 204.3 µM
  IC50/EC50 Nucleus Cell count: 69.4 µM
  IC50/EC50 Nucleus MI: 120 µM
  IC50/EC50 PMP MI: 26.9 µM
  IC50/EC50 ROS MI: 10.5 µM
[3]; hiPSC derived hepatocytes
  Concentration from which effects on plasma membrane permeability (PMP) start: 32 µM
[3]; hiPSC derived hepatocytes, at 100 μM
  Cell count reduction: 50%
HepG2 cells; HepG2, fixed assay, 48 h
  IC50/EC50 Nucleus Cell count: 165 µM
  IC50/EC50 Nucleus MI: 892 µM
  IC50/EC50 Steatosis Area: 398 µM
  IC50/EC50 Steatosis Count: 260 µM
HepG2 cells; HepG2, live assay, 48 h
  IC50/EC50 MMP MI: 622 µM
  IC50/EC50 Nucleus Cell count: 120.3 µM
  IC50/EC50 Nucleus MI: 153 µM
  IC50/EC50 ROS MI: 115 µM
HepG2 cells; human, 48 h
  MEC, MMP mean intensity: 1000 µM
  MEC, PMP mean intensity: 1000 µM
  MEC, ROS mean intensity: 316 µM
  MEC, nuclear changes area (NC, A): 1000 µM
  MEC, nuclear changes mean intensity (NC, MI): 1000 µM
  MEC, steatosis droplet count (S, C): 316 µM
  MEC, steatosis mean intensity (S, MI): 1000 µM
  MEC, viability cell count (V, CC): 316 µM
  Minimal effective concentration (MEC), viability cell count (V, CC): 100 µM
  SRI (steatotic risk index) Lipid: 36
  SRI (steatotic risk index) ROS: 36
  TR (toxicity risk): 11.4

## O=C([O-])CC(O)(CC(=O)[O-])C(=O)[O-].[Na+].[Na+].[Na+] [Sodium citrate, sodium citrate]
[3]; hiPSC derived hepatocytes, negative control substance
  Effects on all parameters measured over the whole dose range: No significant effects
HepG2 cells; [4]
  Degree of injury score, Phospholipids Area: 0 (variation lower than 25%)
  Degree of injury score, Phospholipids C: 1 (variation 25-150%)
  Degree of injury score, Phospholipids MI: 0 (variation lower than 25%)
HepG2 cells; HepG2 cultures, at 100 μM
  Score for phospholipidosis: false positive score

Source: article PMC4736406 (Stem Cells International, 2016)
